Like-named read-outs stand apart in the source and are kept apart here.
Tests used:
Type in all cases: cell-based
[1] = tested on: TRAIL, DR5, TRADD, RIP3, TNF-α, TNFR1, FADD, Fas in BT-20 TNBC cells; assay: Western blot, TRAIL and TNF pathway proteins
Method: The TNBC cells were seeded in a culture flask and incubated for 24 h. The cells were then incubated with different concentrations of the lead compounds and re-incubated for an additional 12 or 24 h. […] The bicinchoninic acid (BCA) was used to determine protein concentration in the cell extracts (G-BIOSCIENCES, St. Louis, MO, USA). […] The membrane was blocked using 5% milk in Tris-buffered Tween 20 saline for 30 minutes. The membrane was then incubated overnight with primary antibodies against Bak, Bax, Bcl-2, caspase9, caspase 3, caspase 7, PARP, cytochrome c, N-cadherin, E-cadherin, c-Myc, dishevelled segment polarity protein 3 (DVL3), dishevelled segment polarity protein 2 (DVL2), Vimentin, mitogen-activated protein kinase kinase (MAPKK also known as MEK1/2), β-catenin, low-density lipoprotein receptor-related protein 6 (LRP6), receptor-interacting protein kinase (RIP), phosphorylated RIP (p-RIP), mixed lineage kinase domain like pseudokinase(MLKL), Caspase 8, light chain 3 (LC3), lysosomal-associated membrane protein 1 (LAMP1), unc-51 like autophagy activating kinase 1 (ULK1), ras associated protein 7 (Rab7), ras associated protein 5 (Rab5), Beclin 1, mechanistic target of rapamycin (mTOR), tumor necrosis factor alpha (TNF-α), tumor necrosis factor receptor 1 (TNFR1), tumor necrosis factor receptor 2 (TNFR2), Fas-associated protein with death domain (FADD), Fas ligand (Fas), TNF-related apoptosis-inducing ligand (TRAIL), death receptor 5 (DR5), Tumor necrosis factor receptor type 1-associated DEATH domain (TRADD), receptor-interacting protein kinase 3 (RIP3), β-actin or GAPDH in 1:1000 dilution in 5% milk or 5% BSA at 4° C. […] A ChemiDoc™ MP System imaging system from Bio-Rad (Hercules, CA, USA) was used for blots reading. Blots were used to obtain the protein bands, followed by quantification of the bands using image J software (NIH, Bethesda, MD, USA). All of the data were expressed as the ratio of β-actin or GAPDH.

[2] = tested on: RIP, p-RIP, MLKL, caspase 8 in MDA-MB468 cells; assay: Western blot, necroptotic proteins, MDA-MB468
Method: The TNBC cells were seeded in a culture flask and incubated for 24 h. The cells were then incubated with different concentrations of the lead compounds and re-incubated for an additional 12 or 24 h. […] The bicinchoninic acid (BCA) was used to determine protein concentration in the cell extracts (G-BIOSCIENCES, St. Louis, MO, USA). […] The membrane was blocked using 5% milk in Tris-buffered Tween 20 saline for 30 minutes. The membrane was then incubated overnight with primary antibodies against Bak, Bax, Bcl-2, caspase9, caspase 3, caspase 7, PARP, cytochrome c, N-cadherin, E-cadherin, c-Myc, dishevelled segment polarity protein 3 (DVL3), dishevelled segment polarity protein 2 (DVL2), Vimentin, mitogen-activated protein kinase kinase (MAPKK also known as MEK1/2), β-catenin, low-density lipoprotein receptor-related protein 6 (LRP6), receptor-interacting protein kinase (RIP), phosphorylated RIP (p-RIP), mixed lineage kinase domain like pseudokinase(MLKL), Caspase 8, light chain 3 (LC3), lysosomal-associated membrane protein 1 (LAMP1), unc-51 like autophagy activating kinase 1 (ULK1), ras associated protein 7 (Rab7), ras associated protein 5 (Rab5), Beclin 1, mechanistic target of rapamycin (mTOR), tumor necrosis factor alpha (TNF-α), tumor necrosis factor receptor 1 (TNFR1), tumor necrosis factor receptor 2 (TNFR2), Fas-associated protein with death domain (FADD), Fas ligand (Fas), TNF-related apoptosis-inducing ligand (TRAIL), death receptor 5 (DR5), Tumor necrosis factor receptor type 1-associated DEATH domain (TRADD), receptor-interacting protein kinase 3 (RIP3), β-actin or GAPDH in 1:1000 dilution in 5% milk or 5% BSA at 4° C. Horseradish peroxidase-labeled (HRP) anti-rabbit or anti-mouse secondary antibodies (1:5,000 dilution) were added and incubated the next day for an additional 1 h. A ChemiDoc™ MP System imaging system from Bio-Rad (Hercules, CA, USA) was used for blots reading. Blots were used to obtain the protein bands, followed by quantification of the bands using image J software (NIH, Bethesda, MD, USA). All of the data were expressed as the ratio of β-actin or GAPDH.

[3] = tested on: MCF-7 (non-TNBC cell line); assay: MTT cell viability assay, MCF-7; conditions: read-out: IC50 ± SD, MCF-7
Method: The following cancer and non-cancer cell lines were used in the initial cytotoxicity screening of the TPH104 compounds: triple negative breast cancer (TNBC): MDA-MB468, MDA-MB 231, and BT-20; non-TNBC: MCF-7 and ZR-75-1; ovarian: Ov2008; prostate: DU145; colon: HCT-116, S1, and LOVO; lung: H460; normal kidney: HEK-293; normal breast: HMEC; and normal colon: CRL-1459. All cells were cultured in Dulbecco's modified Eagle medium (DMEM), supplemented with 10% fetal bovine serum (FBS), and 1% penicillin/streptomycin (P/S). Cells were allowed to grow as adherent monolayers in T25 flasks in a humidified incubator with 5% CO2 at 37° C. for a period of 24 h, unless otherwise specified for certain experiments.
The MTT assay was used to determine the cytotoxicity of all of the compounds. Briefly, in a 96-well flat-bottom cell culture plate, the cells were seeded at a density between 3-5×10^3 cells/well (180 μl in each well) and incubated for 24 h (a hemocytometer was used for cell counting). The next day, the cells were incubated with different concentrations of the nine compounds (0, 0.1, 0.3, 1, 3, 10, 30, and 100 μM) for 72 h. After 72 h, 20 μl of 5 mg/ml of 3-(4,5-dimethylthiazol-2-yl)-2,5-diphenyltetrazolium bromide (MTT) was added to the plate and incubated with the cells for 3 h at 37° C. In this experiment, the living cells will reduce the soluble MTT dye to non-soluble purple formazan crystals. Following incubation, the media containing MTT removed via suction and 100 μL of 100% dimethyl sulfoxide (DMSO) was added to dissolve the formazan crystals. Subsequently, the plate was shaken for 2 minutes and the absorbance was measured at a wavelength of 570 nm using a SpectraMax iD3 Multi-Mode Microplate Reader (Molecular Devices, Sunnyvale, CA). The IC50 values of each compound were calculated and used to determine the selectivity ratio (IC50 in normal cells/IC50 in cancer cells) of each compound as previously described. Based on the results obtained from these experiments, the compound TPH104, which had the lowest IC50 value, was selected for further experiments.

BT-20 or MDA-MB468 cells = assay: Cellular reactive oxygen species (ROS) detection assay (H2DCFDA); conditions: 1, 2, and 5 μM, 12 h
Method: To assess the effect of TPH104 on the generation of ROS, a cell permeant, fluorogenic dye, 2′,7′-dichlorofluorescin diacetate, H2DCFDA, was used. A 5 mM stock solution was prepared using DMSO and PBS was used to prepare the 3 μM working solution of H2DCFDA. The TNBC cells were seeded in a 6-well plate as described in the cell cycle assay. After overnight incubation, cells were incubated with different TPH104 (1, 2, 5 μM) or vehicle for 12 h or with 2 μM of paclitaxel (positive control) for 2 h. The H2DCFDA dye (3 μM) was added to each well and the plate was incubated for an additional 30 minutes. Subsequently, cells were washed 3 times in PBS to remove excess H2DCFDA dye. Thereafter, cells from each well were captured from randomly selected fields using a fluorescent microscope (EVOS-FLC cell imaging system, Thermofisher scientific) at 40× to determine the 2′,7′-dichlorofluorescein (DCF) fluorescence intensity, which is positively correlated with the generation of ROS.

COc1ccc(O)c(/C=N/Nc2ncnc3scc(-c4ccc(C)cc4)c23)c1 [TPH104]
TNF-α ([1]; 0.5, 1, 2, and 5 μM): no significant change | expression of TNFR1, FADD, and Fas ([1]; 0.5, 1, 2, and 5 μM): significantly inhibited | TRAIL, its receptor (DRS), RIP3, and TRADD ([1]; 0.5, 1, 2, or 5 μM): significant increase | expression of caspase 8 ([2]; 0.5, 1, 2, and 5 μM): significantly decreased | expression levels of MLKL ([2]; 1, 2, and 5 μM): significantly increased | expression of p-RIP ([2]; 1, 2, and 5 μM): significantly increased | expression of RIP1 ([2]; 1, 2, or 5 μM for 12 h): significantly increased | IC50 ([3]; 72 h): 3.84 ± 1.36 µM | IC50 ([3]; Homo sapiens, MCF7, 72 h): 3.8 µM | DCF fluorescence levels (ROS) (BT-20 or MDA-MB468 cells): did not significantly alter

Source: patent US12390467B2, “Necroptosis inducers or autophagy inhibitors or a combination thereof” (The University of Toledo, priority 2018, dated 2025)
